{"source": "paper PMC11968843", "about": "“Sulphostin-inspired N-phosphonopiperidones as selective covalent DPP8 and DPP9 inhibitors” (Nature Communications, 2025)", "type_in_all_cases": "biochemical", "key": {"[1]": {"biological_target": "T1, DPP8 (Homo sapiens, UniProt Q6V1X1)", "T1 construct": "purchased Proteros Biostructures GmbH, Germany", "T1 sequence (Q6V1X1 whole entry)": "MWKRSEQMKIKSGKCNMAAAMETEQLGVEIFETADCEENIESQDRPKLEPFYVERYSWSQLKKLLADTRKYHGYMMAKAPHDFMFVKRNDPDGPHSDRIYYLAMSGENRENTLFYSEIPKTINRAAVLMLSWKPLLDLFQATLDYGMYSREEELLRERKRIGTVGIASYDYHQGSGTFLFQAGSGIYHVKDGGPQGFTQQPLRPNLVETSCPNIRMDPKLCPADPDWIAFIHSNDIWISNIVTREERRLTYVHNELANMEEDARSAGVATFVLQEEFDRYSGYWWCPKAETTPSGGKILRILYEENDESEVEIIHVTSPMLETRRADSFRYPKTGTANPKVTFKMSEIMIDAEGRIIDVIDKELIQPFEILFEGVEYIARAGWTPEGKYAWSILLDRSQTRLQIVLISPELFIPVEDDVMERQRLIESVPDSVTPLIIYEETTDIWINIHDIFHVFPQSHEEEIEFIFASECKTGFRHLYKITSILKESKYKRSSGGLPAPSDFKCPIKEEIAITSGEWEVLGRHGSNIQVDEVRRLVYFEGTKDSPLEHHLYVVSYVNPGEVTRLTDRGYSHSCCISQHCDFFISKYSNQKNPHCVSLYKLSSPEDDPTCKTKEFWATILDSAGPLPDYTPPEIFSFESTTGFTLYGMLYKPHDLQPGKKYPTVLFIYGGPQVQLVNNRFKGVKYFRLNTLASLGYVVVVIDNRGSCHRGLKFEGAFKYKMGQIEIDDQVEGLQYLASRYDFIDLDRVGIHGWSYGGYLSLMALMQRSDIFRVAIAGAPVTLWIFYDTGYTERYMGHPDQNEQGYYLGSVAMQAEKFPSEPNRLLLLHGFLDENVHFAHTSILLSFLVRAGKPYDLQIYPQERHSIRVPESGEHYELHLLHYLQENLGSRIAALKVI", "test": "Time-dependent DPP8 inhibition kinetics (kobs, KI, kinact, kapp)", "method": "(§1) To calculate the reaction rate of covalent bond formation between DPP proteins and inhibitor, kinact, KI and kapp was determined as previously described[30],[51]. Therefore, 250 µM GP-AMC was added simultaneously with a serial dilution of the inhibitor to 10 nM enzyme. Enzyme activity was measured for a maximum of 120 min at 30 °C, and fluorescence intensities were then plotted against time. Data was fitted to the following equation: Y=(vi/kobs)*(1−exp(−kobs*X)) using Graph-Pad Prism v10.2.3. The obtained pseudo-first-order rate constant was used to determine the maximum enzyme inhibition rate (kinact) and binding affinity (KI) by fitting the plot of kobs against inhibitor concentration to the following equation: Y=kinact/1+(KI/[I]) . The efficiency of covalent bond formation (kapp) was calculated by the ratio of kinact/KI. All measurements were performed in triplicates and error bars represent standard errors of the fit."}, "[2]": {"biological_target": "T2, DPP4 (Homo sapiens, UniProt P27487)", "T2 construct": "purchased Proteros Biostructures GmbH, Germany", "T2 sequence (P27487 whole entry)": "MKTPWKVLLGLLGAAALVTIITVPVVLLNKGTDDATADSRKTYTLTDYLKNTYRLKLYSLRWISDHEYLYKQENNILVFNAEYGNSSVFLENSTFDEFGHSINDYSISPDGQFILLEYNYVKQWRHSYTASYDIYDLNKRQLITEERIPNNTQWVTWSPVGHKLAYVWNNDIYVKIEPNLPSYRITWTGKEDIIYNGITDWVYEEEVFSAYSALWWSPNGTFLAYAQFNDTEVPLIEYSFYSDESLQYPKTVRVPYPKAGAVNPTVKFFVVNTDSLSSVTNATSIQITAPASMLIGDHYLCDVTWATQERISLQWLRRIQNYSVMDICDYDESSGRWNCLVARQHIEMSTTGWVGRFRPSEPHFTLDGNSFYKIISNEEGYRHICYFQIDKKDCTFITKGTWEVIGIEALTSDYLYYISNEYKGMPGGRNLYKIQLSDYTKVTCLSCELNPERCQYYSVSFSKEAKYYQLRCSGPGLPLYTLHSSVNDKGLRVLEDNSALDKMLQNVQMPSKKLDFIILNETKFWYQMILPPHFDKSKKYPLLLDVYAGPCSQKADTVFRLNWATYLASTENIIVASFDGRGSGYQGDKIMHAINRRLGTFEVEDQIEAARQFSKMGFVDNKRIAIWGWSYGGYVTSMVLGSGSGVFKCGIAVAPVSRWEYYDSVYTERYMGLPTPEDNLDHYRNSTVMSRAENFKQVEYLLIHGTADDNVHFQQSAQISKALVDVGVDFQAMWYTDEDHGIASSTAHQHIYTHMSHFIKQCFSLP", "method": "as §1, with “Therefore, 250 µM GP-AMC was added simultaneously with a serial dilution of the inhibitor to 10 nM enzyme.” left out"}, "[3]": {"biological_target": "T3, DPP9 (Homo sapiens, UniProt Q86TI2)", "T3 sequence (Q86TI2 whole entry)": "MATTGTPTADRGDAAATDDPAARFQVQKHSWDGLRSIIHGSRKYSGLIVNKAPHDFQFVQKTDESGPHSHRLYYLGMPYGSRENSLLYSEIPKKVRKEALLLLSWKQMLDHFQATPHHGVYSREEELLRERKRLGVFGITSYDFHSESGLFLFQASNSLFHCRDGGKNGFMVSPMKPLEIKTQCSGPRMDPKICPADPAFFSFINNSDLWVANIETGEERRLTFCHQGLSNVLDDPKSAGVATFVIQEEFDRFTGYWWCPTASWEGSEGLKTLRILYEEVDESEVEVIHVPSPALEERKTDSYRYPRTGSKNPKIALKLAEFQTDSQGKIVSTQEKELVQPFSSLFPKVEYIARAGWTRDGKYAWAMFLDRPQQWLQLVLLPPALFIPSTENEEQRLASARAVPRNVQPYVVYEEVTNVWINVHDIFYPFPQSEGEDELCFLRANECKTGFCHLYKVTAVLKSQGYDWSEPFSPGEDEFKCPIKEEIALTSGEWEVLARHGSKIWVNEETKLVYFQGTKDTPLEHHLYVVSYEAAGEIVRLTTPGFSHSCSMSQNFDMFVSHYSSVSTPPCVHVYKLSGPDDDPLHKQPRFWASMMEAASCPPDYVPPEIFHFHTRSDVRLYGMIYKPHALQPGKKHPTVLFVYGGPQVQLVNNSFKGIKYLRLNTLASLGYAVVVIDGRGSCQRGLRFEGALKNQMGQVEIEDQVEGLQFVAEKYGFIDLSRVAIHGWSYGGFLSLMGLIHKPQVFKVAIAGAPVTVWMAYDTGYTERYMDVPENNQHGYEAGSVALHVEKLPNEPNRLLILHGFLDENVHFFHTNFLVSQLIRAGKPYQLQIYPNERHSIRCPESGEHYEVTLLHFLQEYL", "test": "biochemical", "parameters": "purchased Proteros Biostructures GmbH, Germany", "conditions": "for DPP9 activity [%]: replicates", "method": "(§2) Enzyme activity of DPP4, DPP8, DPP9 (Proteros Biostructures GmbH, Germany) and PREP (Sigma Aldrich, USA) was determined by measuring the initial velocity of AMC release from the fluorogenic substrate GP-AMC (Sigma Aldrich, USA) using a Tecan Spark® 10 M multimode microplate reader (Tecan Group Ltd., Switzerland) in activity buffer (20 mM HEPES/KOH pH 7.3, 110 mM potassium acetate, 2 mM Mg acetate, 0.5 mM EGTA, 0.02% Tween 20, supplemented with 1 mM DTT) and a final volume of 20 μL for maximal 60 min at 30 °C. Prior to activity measurement, 10 nM enzyme was incubated for 45 min at 30 °C and gentle shaking with the inhibitor compounds in concentrations ranging from 0 to 100 μM. The compounds were dissolved in DMSO and diluted in activity buffer (final DMSO concentration: 1%). […] IC50 values were calculated using Graph-Pad Prism v10.2.3 using the equation: [Inhibitor] vs. response—Variable slope (four parameters). All measurements were performed in triplicates and error bars represent standard errors of the fit."}, "[4]": {"biological_target": "T3, DPP9", "test": "Time-dependent DPP9 inhibition kinetics (kobs, KI, kinact, kapp)", "parameters": "purchased Proteros Biostructures GmbH, Germany", "method": "as §1"}, "[5]": {"biological_target": "T1, DPP8", "test": "biochemical", "method": "as §2"}, "[6]": {"biological_target": "T2, DPP4", "test": "biochemical", "conditions": "for DPP4 activity [%]: replicates", "method": "as §2"}, "[7]": {"conditions": "irreversible inhibition, fit of kobs vs inhibitor concentration"}}, "note": "“And” between values parts separate entries of the source, which are not always exact repeats. Identical values can stand only once. Like-named read-outs stand apart in the source and are kept apart here."}
{"smiles": "CCCCCc1ccc(SCCP(=O)(OCC)N2CCC[C@H](N)C2=O)cc1.O=C(O)C(F)(F)F", "note": "(stereo partly drawn) [Compound 16]", "values": [{"measurement": "kobs DPP8", "setting": "[1]; c 0.003125 µM", "value": "7.927e-05", "unit": "s⁻¹"}, {"measurement": "kobs DPP8", "setting": "[1]; c 0.025 µM", "value": 0.0001486, "unit": "s⁻¹"}, {"measurement": "kinact DPP8", "setting": "[1]; [7]", "value": 0.00018, "unit": "s⁻¹"}, {"measurement": "KI (inactivation)", "setting": "[1]; irreversible inhibition, fit of kobs vs inhibitor concentration, read-out: KI DPP8", "value": "4e-09 ± 2e-09", "unit": "M"}, {"measurement": "KI (inactivation)", "setting": "[1]; source data, read-out: KI [M] best fit DPP8", "value": "3.53e-09", "unit": "M"}, {"measurement": "kobs DPP4", "setting": "[2]; c 250 µM", "value": 0.003317, "unit": "s⁻¹"}, {"measurement": "kobs DPP4", "setting": "[2]; c 1000 µM", "value": 0.006797, "unit": "s⁻¹"}, {"measurement": "kinact DPP4", "setting": "[2]; [7]", "value": 0.01027, "unit": "s⁻¹"}, {"measurement": "kapp DPP4", "setting": "[2]; ratio kinact/KI", "value": 20, "unit": "M⁻¹ s⁻¹"}, {"measurement": "KI (inactivation)", "setting": "[2]; source data, read-out: KI [M] best fit DPP4", "value": 0.000512, "unit": "M"}, {"measurement": "IC50", "setting": "[3]; GP-AMC 250 µM, 10 nM enzyme, 45 min pre-incubation at 30 °C, read-out: IC50 DPP9", "value": "298 ± 21", "unit": "nM"}, {"measurement": "DPP9 activity [%]", "setting": "[3]; c 15.625 nM", "value": "90.8881% and 85.3617% and 82.8729%"}, {"measurement": "DPP9 activity [%]", "setting": "[3]; c 31.25 nM", "value": "91.5419% and 83.379% and 89.0951%"}, {"measurement": "DPP9 activity [%]", "setting": "[3]; c 62.5 nM", "value": "100.148% and 96.4776% and 87.1335%"}, {"measurement": "DPP9 activity [%]", "setting": "[3]; c 156.25 nM", "value": "75.5857% and 64.6658% and 62.3826%"}, {"measurement": "DPP9 activity [%]", "setting": "[3]; c 250 nM", "value": "60.7045% and 50.2004% and 47.0576%"}, {"measurement": "DPP9 activity [%]", "setting": "[3]; c 312.5 nM", "value": "47.5512% and 45.1489% and 49.4375%"}, {"measurement": "DPP9 activity [%]", "setting": "[3]; c 500 nM", "value": "25.3111% and 25.3533% and 24.7205%"}, {"measurement": "DPP9 activity [%]", "setting": "[3]; c 625 nM", "value": "28.2131% and 30.5361% and 23.7856%"}, {"measurement": "DPP9 activity [%]", "setting": "[3]; c 1000 nM", "value": "10.0823% and 10.3775% and 12.2759%"}, {"measurement": "DPP9 activity [%]", "setting": "[3]; c 2500 nM", "value": "5.122% and 5.281% and 6.135%"}, {"measurement": "DPP9 activity [%]", "setting": "[3]; c 5000 nM", "value": "3.4348% and 3.693% and 4.11%"}, {"measurement": "DPP9 activity [%]", "setting": "[3]; c 10000 nM", "value": "2.0053% and 1.966% and 1.707%"}, {"measurement": "kobs DPP9", "setting": "[4]; c 0.0625 µM", "value": 0.0001274, "unit": "s⁻¹"}, {"measurement": "kobs DPP9", "setting": "[4]; c 0.25 µM", "value": 0.0002545, "unit": "s⁻¹"}, {"measurement": "kobs DPP9", "setting": "[4]; c 1 µM", "value": 0.0004155, "unit": "s⁻¹"}, {"measurement": "kinact DPP9", "setting": "[4]; [7]", "value": "0.0005 ± 0.00007", "unit": "s⁻¹"}, {"measurement": "KI (inactivation)", "setting": "[4]; irreversible inhibition, fit of kobs vs inhibitor concentration, read-out: KI DPP9", "value": "2.16e-07 ± 9e-08", "unit": "M"}, {"measurement": "KI (inactivation)", "setting": "[4]; source data, read-out: KI [M] best fit DPP9", "value": "2.16e-07", "unit": "M"}, {"measurement": "IC50", "setting": "[5]; GP-AMC 250 µM, 10 nM enzyme, 45 min pre-incubation at 30 °C, read-out: IC50 DPP8", "value": "14 ± 1", "unit": "nM"}, {"measurement": "DPP8 activity [%]", "setting": "[5]; c 15.625 nM, replicates", "value": "42.4788% and 41.4194% and 46.9279%"}, {"measurement": "DPP8 activity [%]", "setting": "[5]; c 25 nM, replicates", "value": "28.7129% and 21.6298% and 23.9147%"}, {"measurement": "DPP8 activity [%]", "setting": "[5]; c 31.25 nM, replicates", "value": "25% and 29.6611% and 26.8008%"}, {"measurement": "DPP8 activity [%]", "setting": "[5]; c 50 nM, replicates", "value": "11.5004% and 14.9276% and 11.5003%"}, {"measurement": "DPP8 activity [%]", "setting": "[5]; c 62.5 nM, replicates", "value": "11.5466% and 15.9958% and 12.9237%"}, {"measurement": "DPP8 activity [%]", "setting": "[5]; c 100 nM, replicates", "value": "5.331% and 3.808% and 3.884%"}, {"measurement": "DPP8 activity [%]", "setting": "[5]; c 250 nM, replicates", "value": "4.449% (2×) and 5.085%"}, {"measurement": "DPP8 activity [%]", "setting": "[5]; c 500 nM, replicates", "value": "3.39% and 4.449% and 3.1779%"}, {"measurement": "DPP8 activity [%]", "setting": "[5]; c 1000 nM, replicates", "value": "3.496% and 1.907% and 2.6483%"}, {"measurement": "DPP8 activity [%]", "setting": "[5]; c = 1.5625 nM inhibitor, individual replicates", "value": "85.6817% and 91.6222% and 85.0724%"}, {"measurement": "DPP8 activity [%]", "setting": "[5]; c = 3.125 nM inhibitor, individual replicates", "value": "102.513% and 82.8637% and 92.1555%"}, {"measurement": "DPP8 activity [%]", "setting": "[5]; c = 6.25 nM inhibitor, individual replicates", "value": "73.0388% and 69.9924% and 75.3236%"}, {"measurement": "DPP8 vs. DPP9 selectivity", "setting": "[5]; from IC50 values", "value": "~ 21 fold"}, {"measurement": "selectivity of DPP8 inhibition over DPP4", "setting": "[5]; from IC50 values", "value": "~ 1154 fold"}, {"measurement": "IC50", "setting": "[6]; GP-AMC 250 µM, 10 nM enzyme, 45 min pre-incubation at 30 °C, read-out: IC50 DPP4", "value": 16200, "unit": "nM"}, {"measurement": "DPP4 activity [%]", "setting": "[6]; c 15.625 nM", "value": "93.2714% and 107.175% and 106.746%"}, {"measurement": "DPP4 activity [%]", "setting": "[6]; c 31.25 nM", "value": "98.0992% and 97.1086% and 101.856%"}, {"measurement": "DPP4 activity [%]", "setting": "[6]; c 62.5 nM", "value": "102.891% and 92.9769% and 100.41%"}, {"measurement": "DPP4 activity [%]", "setting": "[6]; c 250 nM", "value": "99.4378% and 98.9828% and 107.906%"}, {"measurement": "DPP4 activity [%]", "setting": "[6]; c 500 nM", "value": "104.087% and 100.437% and 100.482%"}, {"measurement": "DPP4 activity [%]", "setting": "[6]; c 1000 nM", "value": "94.3422% and 97.3674% and 95.7968%"}, {"measurement": "DPP4 activity [%]", "setting": "[6]; c 1562.5 nM", "value": "95.896% and 97.1752% and 96.7627%"}, {"measurement": "DPP4 activity [%]", "setting": "[6]; c 3125 nM", "value": "92.5869% and 89.2118% and 84.6321%"}, {"measurement": "DPP4 activity [%]", "setting": "[6]; c 6250 nM", "value": "85.4573% and 71.7259% and 79.6149%"}, {"measurement": "DPP4 activity [%]", "setting": "[6]; c 25000 nM", "value": "32.8097% and 29.6905% and 29.938%"}, {"measurement": "DPP4 activity [%]", "setting": "[6]; c 50000 nM", "value": "6.082% and 4.679% and 4.407%"}, {"measurement": "DPP4 activity [%]", "setting": "[6]; c 100000 nM", "value": "0.3548% and 1.386% and 0.7592%"}]}
